Consider 26 compounds from patent US8354402B2, “Polyarylcarboxamides useful as lipid lowering agents” (Janssen Pharmaceutica N.V., priority 2000, dated 2013).

Data set [1] relates to ApoB secretion, HepG2 cells. Kind of data set: Quantification of the secretion of ApoB (HepG2 cells, immunoprecipitation, scintillation counting). It counts as cell-based. To be noted: 24 hours of incubation; for IC50: Homo sapiens, HepG2, 24 h. The method, boiled down:
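HepG2 cells in MEM Rega 3 with 10% FCS were treated at 70% confluency with compound (DMSO 0.4% final) for 24 h. Medium ApoB was immunoprecipitated with sheep anti-apoB then rabbit anti-sheep antibody (24 h each, 8° C), and pellet radioactivity was counted by liquid scintillation to give IC50.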

Data set [2] addresses MTP (Homo sapiens, UniProt P55157). Briefly: MTP assay (triglyceride transfer from donor to acceptor vesicles). The class given is biochemical. To be noted: MTP activity, 37° C. On the procedure: MTP activity was measured using an assay similar to one described by J. R. Wetterau and D. B. Zilversmit in Chemistry and Physics of Lipids (1985) 38, 205-222. In order to prepare the donor and acceptor vesicles, the appropriate lipids in chloroform were put into a glass test tube and dried under a stream of nitrogen. A buffer containing 15 mM Tris-HCl (pH 7.5), 1 mM ethylenediamine tetra-acetic acid, 40 mM NaCl, 0.02% NaN3 (assay buffer) was added to the dried lipid. The mixture was vortexed briefly and the lipids were then allowed to hydrate for 20 minutes on ice. Vesicles were then prepared by bath sonication (using a Branson 2200 device) at room temperature for at most 15 minutes. Butylated hydroxytoluene was included in all vesicle preparations at a concentration of 0.1%. The lipid transfer assay mixture contained donor vesicles (40 nmole phosphatidylcholine, 7.5 mole % cardiolipin and 0.25 mole % glycerol tri[1-^14C]-oleate), acceptor vesicles (240 nmol phosphatidylcholine) and 5 mg bovine serum albumin in a total volume of 675 μl in a 1.5 ml microcentrifuge tube. Test compounds were added dissolved in dimethylsulfoxide (0.13% final concentration). After 5 minutes of pre-incubation at 37° C., the reaction was started by the addition of MTP in 100 μl of a dialysis buffer. The reaction was stopped by the addition of 400 μl […] (DEAE)-52 cellulose (Sephadex) pre-equilibrated in 15 mM Tris-HCl (pH 7.5), 1 mM ethylenediamine tetra-acetic acid and 0.02% NaN3 (1:1 volume/volume). The mixture was agitated for 4 minutes and centrifuged for 2 minutes at maximum speed in an Eppendorf centrifuge (4° C.) to pellet the DEAE-52-bound donor vesicles. An aliquot of the supernatant containing the acceptor liposomes was counted and the [^14C]-counts were used to calculate the percent triglyceride transfer from donor to acceptor vesicles.
Resulting IC50 values are enumerated in Table C.2 for some of the above-referred compounds.

MTP, sequence (P55157 19-894, species assumed): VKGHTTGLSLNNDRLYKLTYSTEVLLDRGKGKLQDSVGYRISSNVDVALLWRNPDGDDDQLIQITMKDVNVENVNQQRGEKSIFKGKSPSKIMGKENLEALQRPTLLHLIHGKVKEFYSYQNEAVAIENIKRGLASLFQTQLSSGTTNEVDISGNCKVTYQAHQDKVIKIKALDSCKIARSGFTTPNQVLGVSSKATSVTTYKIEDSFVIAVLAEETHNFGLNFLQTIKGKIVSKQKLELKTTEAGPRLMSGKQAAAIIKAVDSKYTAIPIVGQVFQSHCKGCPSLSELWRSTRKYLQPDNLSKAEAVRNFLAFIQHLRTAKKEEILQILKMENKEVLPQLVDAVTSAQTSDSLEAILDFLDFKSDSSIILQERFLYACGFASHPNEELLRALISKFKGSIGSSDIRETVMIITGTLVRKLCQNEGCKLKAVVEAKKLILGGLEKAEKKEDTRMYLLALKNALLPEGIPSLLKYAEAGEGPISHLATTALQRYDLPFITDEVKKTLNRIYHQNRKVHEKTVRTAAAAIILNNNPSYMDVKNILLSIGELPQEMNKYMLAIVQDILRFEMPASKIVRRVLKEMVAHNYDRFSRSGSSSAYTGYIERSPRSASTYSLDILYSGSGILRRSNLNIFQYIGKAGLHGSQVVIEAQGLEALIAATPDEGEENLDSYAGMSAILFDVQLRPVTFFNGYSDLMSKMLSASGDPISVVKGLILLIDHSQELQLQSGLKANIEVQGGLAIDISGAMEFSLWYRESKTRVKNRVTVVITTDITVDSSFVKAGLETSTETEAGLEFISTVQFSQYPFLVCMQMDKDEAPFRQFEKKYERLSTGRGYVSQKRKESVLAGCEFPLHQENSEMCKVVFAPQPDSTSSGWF
MTP, sequence (P07237 18-508 partner, species assumed): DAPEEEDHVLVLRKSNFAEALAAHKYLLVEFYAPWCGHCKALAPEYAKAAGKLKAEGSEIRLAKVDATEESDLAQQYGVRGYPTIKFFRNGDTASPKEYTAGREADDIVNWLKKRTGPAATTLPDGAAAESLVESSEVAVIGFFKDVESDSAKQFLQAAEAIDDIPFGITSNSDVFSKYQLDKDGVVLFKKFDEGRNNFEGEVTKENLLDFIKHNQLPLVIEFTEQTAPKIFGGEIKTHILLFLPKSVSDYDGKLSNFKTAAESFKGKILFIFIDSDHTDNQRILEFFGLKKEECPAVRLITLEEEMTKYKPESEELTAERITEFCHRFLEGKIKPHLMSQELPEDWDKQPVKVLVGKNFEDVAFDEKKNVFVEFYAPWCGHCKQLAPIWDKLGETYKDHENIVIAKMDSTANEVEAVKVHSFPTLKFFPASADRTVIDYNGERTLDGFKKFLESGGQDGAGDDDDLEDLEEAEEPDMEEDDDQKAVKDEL

Broadly, the IC50 is the concentration that gives 50% inhibition. A high value points to a need for much substance. In general, melting point refers to the temperature of the solid-liquid transition. The compound `O=C(Nc1ccc(N2CCN(C(C(=O)NCC(F)(F)F)c3ccccc3)CC2)cc1)c1ccccc1-c1ccc(C(F)(F)F)cc1` (centres unmarked) [Co. No. 1, N-[4-[4-[2-oxo-1-phenyl-2-[(2,2,2-trifluoroethyl)amino]ethyl]-1-piperazinyl]-phenyl]-4′-(trifluoromethyl)-[1,1′-biphenyl]-2-carboxamide] came in with a melting point of 208 °C. The same compound had an IC50 in data set [1] of 7.89 nM. Also, the IC50 in data set [2] was 13.7 nM.

`COC(=O)C(c1ccccc1)N1CCN(c2ccc(NC(=O)c3ccccc3-c3cccnc3)cc2)CC1` (centres unmarked) [Co. No. 270] returned a melting point of 194 °C.

`CCCOC(=O)C(c1ccccc1)N1CCN(c2ccc(NC(=O)c3ccccc3-c3ccc(C(F)(F)F)cc3)cc2)CC1` (centres unmarked) [Co. No. 62, propyl-phenyl-4-[4-[[[4′-(trifluoromethyl)[1,1′-biphenyl]-2-yl]carbonyl]amino]phenyl]-1-piperazineacetate] showed a melting point of 151 °C. In addition, the half-inhibitory concentration (IC50) in data set [1] is 64.6 nM. Moreover, the IC50 in data set [2] was 10.5 nM.

The compound `CCOC(=O)C(CN1CCN(c2ccc(NC(=O)c3ccccc3-c3ccc(C(F)(F)F)cc3)cc2)CC1)c1ccccc1` (centres unmarked) [Co. No. 81, ethylphenyl-4-[4-[[[4′-(trifluoromethyl)[1,1′-biphenyl]-2-yl]carbonyl]amino]-phenyl]-1-piperazine propanoate] returned a melting point of 195 °C. Half-maximal inhibition in data set [1] (IC50) required 178 nM.

`CCNC(=O)C(c1ccccc1)N1CCN(c2ccc(NC(=O)c3ccccc3-c3ccc(C(F)(F)F)cc3)cc2)CC1` (centres unmarked) [Co. No. 54, N-[4-[4-[2-(ethylamino)-2-oxo-1-phenylethyl]-1-piperazinyl]phenyl]-4′-(trifluoromethyl)-[1,1′-biphenyl]-2-carboxamide] showed a melting point of 123 °C. The compound also gave an IC50 in data set [1] of 7.89 nM. The compound further had an IC50 in data set [2] of 5.38 nM.

Consider `CCOC(=O)C(c1ccccc1)N1CCC(c2ccc(NC(=O)c3ccccc3-c3ccc(C(F)(F)F)cc3)cc2)CC1` (centres unmarked) [Co. No. 222], for which the half-maximal inhibitory concentration (IC50) was 19.2 nM in data set [1] and 8.41 nM in data set [2].

With `COC(=O)C(c1ccccc1)C1CCN(c2ccc(NC(=O)c3ccccc3-c3ccc(C(C)C)cc3)cc2)CC1` (centres unmarked) [Co. No. 232], the IC50 is below 30 nM in data set [1] and 25 nM in data set [2].

For `O=C(Nc1ccc(N2CCC(C(C(=O)NCc3ccccc3)c3ccccc3)CC2)cc1)c1ccccc1COc1ccccc1` (centres unmarked) [Co. No. 7], the values for the IC50 in data set [1] and in data set [2] were 261 nM and 363 nM, respectively.

In general, pIC50 refers to the negative decadic logarithm of the IC50, by convention in mol/L. Turning to `COC(=O)C(c1ccccc1)N1CCN(c2ccc(NC(=O)c3ccccc3-c3ccc(C(F)(F)F)cc3)cc2)CC1` (centres unmarked) [Co. No. 239], the negative-log IC50 (pIC50) in data set [1] (listed as 239) was found to be 7.855. The IC50 in data set [2] is 1.98 nM.

In turn, `COC(=O)C(c1ccccc1)C1CCN(c2ccc(NC(=O)c3ccccc3-c3ccc(C(F)(F)F)cc3)cc2)CC1` (stereo not drawn) [Co. No. 39, methyl α-phenyl-1-[4-[[[4′-(trifluoromethyl)-[1,1′-biphenyl]-2-yl]carbonyl]amino]phenyl]-4-piperidineacetate] yielded a melting point of 151 °C. The compound also displayed a pIC50 in data set [1] (listed as 39) of 7.791. The same compound had an IC50 in data set [2] of 12 nM.

In the case of `COC(=O)C(c1ccccc1)C1CCN(c2ccc(NC(=O)c3ccccc3-c3ccc(C(F)(F)F)cc3)cc2)CC1` (centres unmarked) [Co. No. 241], the pIC50 in data set [1] (listed as 241) came out at 7.578. Also, in data set [2], the IC50 is 10.4 nM.

Compound `COC(=O)C(c1ccccc1)N1CCC(c2ccc(NC(=O)c3ccccc3-c3ccc(C(F)(F)F)cc3)cc2)CC1` (single isomer, unassigned) [Co. No. 230] gave a negative logarithm of the IC50 (pIC50) in data set [1] of 8.31. In data set [2], this compound had a half-maximal inhibitory concentration (IC50) of 3.64 nM.

Take `COC(=O)C(c1ccccc1)N1CCN(c2ccc(NC(=O)c3ccccc3-c3ccc(C(F)(F)F)cc3)cc2)CC1` (stereo not drawn) [Co. No. 40, methyl α-phenyl-4-[4-[[[4′-(trifluoromethyl)[1,1′-biphenyl]-2-yl]carbonyl]amino]phenyl]-1-piperazineacetate]: the pIC50 in data set [1] (listed as 40) worked out at 7.586. Besides, in data set [2], the IC50 was 4.53 nM.

In data set [1] (listed as 242), `COC(=O)C(c1ccccc1)C1CCN(c2ccc(NC(=O)c3ccccc3-c3ccc(C(F)(F)F)cc3)cc2)CC1` (centres unmarked) [Co. No. 242] showed a pIC50 of 8.133. The compound further had an IC50 in data set [2] of 11.5 nM.

As to `COC(=O)C(c1ccccc1)N1CCN(c2ccc(NC(=O)c3ccccc3-c3ccccc3)cc2)CC1` (stereo not drawn) [Co. No. 52, methyl 4-[4-[([1,1′-biphenyl]-2-ylcarbonyl)amino]phenyl]-α-phenyl-1-piperazineacetate], the melting point was found to be 125 °C. In addition, in data set [1], the half-maximal inhibitory concentration (IC50) is 294 nM.

Turning to `O=C(Nc1ccc(N2CCN(C(C(=O)NCc3ccccc3)c3ccccc3)CC2)cc1)c1ccccc1-c1ccc(C(F)(F)F)cc1` (centres unmarked) [Co. No. 61], the results for the IC50 in data set [1] and in data set [2] were 3.85 nM and 4.79 nM, respectively.

`COC(=O)C(c1ccccc1)N1CCC(c2ccc(NC(=O)c3ccccc3-c3ccc(C(F)(F)F)cc3)cc2)CC1` (single isomer, unassigned) [Co. No. 229]: the melting point stood at 158 °C. Also, the pIC50 in data set [1] was found to be 7.409. In data set [2], this compound had an IC50 of 52.6 nM.

Turning to `O=C(Nc1ccc(N2CCC(C(C(=O)NCc3ccccc3)c3ccccc3)CC2)cc1)c1ccccc1-c1ccc(C(F)(F)F)cc1` (centres unmarked) [Co. No. 11], the figures for the IC50 in data set [1] and in data set [2] were 4.62 nM and 7.31 nM, respectively.

On to `CCCCCNC(=O)C(c1ccccc1)N1CCC(c2ccc(NC(=O)c3ccccc3-c3ccc(C(F)(F)F)cc3)cc2)CC1` (centres unmarked) [Co. No. 75], for which the IC50 in data set [1] was 11.4 nM; in data set [2] it was 8.38 nM.

On to `COC(=O)C(c1ccccc1)N1CCC(c2ccc(NC(=O)c3ccccc3-c3ccc(C(F)(F)F)cc3)cc2)CC1` (centres unmarked) [Co. No. 41, methylphenyl-4-[4-[[[4′-(trifluoromethyl)[1,1′-biphenyl]-2-yl]carbonyl]amino]phenyl]-1-piperidineacetate], for which the melting point came to 138 °C. For the same compound, the concentration for half-maximal inhibition (IC50) in data set [1] was 21.6 nM. Further, 8.65 nM corresponded to half-maximal inhibition in data set [2] (IC50).

Consider `O=C(Nc1ccc(N2CCC(C(C(=O)NCc3ccccc3)c3ccccc3)CC2)cc1)c1ccccc1Cc1ccccc1` (centres unmarked) [Co. No. 10], for which the half-inhibitory concentration (IC50) in data set [1] was 241 nM; in data set [2] it was above 3000 nM.

On to `O=C(Nc1ccc(N2CCC(C(C(=O)NCc3ccccc3)c3ccccc3)CC2)cc1)c1ccccc1CSc1ccccc1` (centres unmarked) [Co. No. 6], for which the IC50 in data set [1] is 108 nM; in data set [2], 198 nM.

In turn, `O=C(Nc1ccc(N2CCC(C(C(=O)NCc3ccccc3)c3ccccc3)CC2)cc1)c1cccc2c1-c1ccccc1C2` (centres unmarked) [Co. No. 2] registered a melting point of 202 °C. Further, 106 nM corresponded to half-maximal inhibition in data set [1] (IC50).

For the compound `C=CCNC(=O)C(c1ccccc1)N1CCN(c2ccc(NC(=O)c3ccccc3-c3ccc(C(F)(F)F)cc3)cc2)CC1` (centres unmarked) [Co. No. 57], the IC50 was 7.57 nM in data set [1] and 6.87 nM in data set [2].

`COC(=O)C(c1ccccc1)N1CCN(c2ccc(NC(=O)c3ccccc3-c3ccsc3)cc2)CC1` (centres unmarked) [Co. No. 267]: the melting point was found to be 150 °C.

Regarding `CCNC(=O)C(c1ccccc1)C1CCN(c2ccc(NC(=O)c3ccccc3-c3ccc(C(C)(C)C)cc3)cc2)CC1` (centres unmarked) [Co. No. 87], the IC50 is 2.05 nM in data set [1] and 3.2 nM in data set [2].
